Measured values reported in patent publication US20260335323A1, “CHIMERIC MOLECULE” (UCL Business Ltd, priority 2023, published 2026).

Assays:
Assay type in all cases: cell-based, human
[1] = system: LC3; assay: Western blot, LC3I:LC3II ratio in PANC-1 cells
Source text: (§1) FIG. 2. BL-918 is a potent ULK1 agonist and autophagy inducer (A) Representative images of PANC-1 cells stably expressing the mCherry-EGFP-LC3 tandem reporter treated with ULK1 agonists. Nuclei stained with Hoechst 33342, autophagosomes are shown in the EGFP channel and autolysosomes in the mCherry channel. Fold change in the number of autophagosomes (B) and autolysosomes (C) puncta in ULK1 agonist treated cells. (D) Western blot of PANC-1 cells treated with DMSO, bafilomycin and ULK1 agonists±bafilomycin; probed for p-ULK1 (S317), ULK1, p62, b-actin, LC3-I and LC3-II. Quantifications of western blot for changes in the ratio of p-ULK1 (S317):ULK1 (E), p62 (F) and LC31:LC3II (G). All data shown are mean±SEM, n=3, *p<0.05, ** p<0.01, one-way ANOVA with Dunnett's multiple comparisons test.
(§2) FIG. 4. ULKTACs retain ULK1 agonist activity and subsequent induction of autophagy (A) Western blot of PANC-1 cells treated with ULKTACs±bafilomycin, probed for p-ULK1 (S317), ULK1, p62, b-Actin, LC31 and LC3II. Quantifications of (A) for the pULK1:ULK1 ratio (B) LC3I:LC3II ratio (C) and changes in p62 (D). (E) Representative images of PANC-1 cells stably expressing the mCherry-EGFP-LC3 tandem reporter treated with ULKTACs w/or w/o bafilomycin. Nuclei stained with Hoechst 33342, autophagosomes are shown in the EGFP channel and autolysosomes in the mCherry channel. […]
(§3) Cells were homogenised in protein lysis buffer consisting of 0.1 M Tris pH 8.0, 0.1 M NaCl, 5% glycerol, IGEPAL® CA-630 (#18896. Sigma-Aldrich) and 5 mM EDTA, 0.1 M N-ethyl maleimide (ThermoFisher, #23030) and protease inhibitor (Cell Signalling Technologies, #5871). Protein concentrations were determined using the BCA assay to ensure equal loading. […]
(§4) Membranes were then incubated with horseradish peroxidase (HRP)-conjugated secondary antibodies (Rabbit #7074 and Mouse #7076) purchased from Cell Signalling Technologies for 1 hour and the HRP signal was detected using EZ-ECL Enhanced Chemiluminescence Detection Kit for HRP (#20-500-500, Sartorius), and imaged with an Alliance Q9 Advanced (UVITec). […]

[2] = system: p62/SQSTM1; assay: Western blot, p62/SQSTM1 levels in PANC-1 cells
Source text: as §1, §2, §3, §4

[3] = system: PANC-1 cells; assay: mCherry-EGFP-LC3 tandem reporter assay, autophagosomes/autolysosomes; settings: for autophagic flux: bafilomycin A1 co-treatment; for enhanced number of mCherry puncta: co-treatment with bafilomycin A1; for fold increase in number of mCherry puncta: mCherry puncta (autolysosomes); for fold increase in number of EGFP puncta: panc-1 cells
Experimental: FIG. 1. The structure of AUTAC-4 is shown in (A). (B) Representative images of SH-SY5Y cells stably expressing the mito-mKeima reporter treated with AUTAC4 for 18 h. Nuclei were stained with Hoechst 33342, healthy mitochondria are shown in green and mitochondria in lysosomes are shown in red. (C-E) Fold change in mitophagy index over time after treatment with increasing concentrations of AUTAC4 under treatment with DMSO (C), 3 mM CCCP (D) or 0.1/0.1 mM antimycin/oligomycin (E), also for 18 h. (F) Quantification of changes in mitochondrial membrane potential over time (DYm) by measuring the TMRM relative fluorescence intensity (RFI) treated with DMSO, 10 mM CCCP, 10 mM and 20 mM AUTAC4. Normalised to number of nuclei. (G) Representative western blot of SH-SY5Y cells treated with DMSO, 10 mM AUTAC4 or 10 mM AUTAC4+0.1/0.1 mM antimycin/oligomycin for 18 h and, probed for p62, b-actin and Tom20. Quantifications of western blot for changes in Tom20 and p62 levels shown in (H) and (I), respectively. (J) Representative images of PANC-1 cells stably expressing the mCherry-EGFP-LC3 tandem reporter. Nuclei stained with Hoechst 33342, autophagosomes are shown in the EGFP channel and autolysosomes in the mCherry channel. Fold change in the number of autophagosome (K) and autolysosome (L) puncta in AUTAC4 treated cells. All data shown are mean±SEM, n=3, *p<0.05, *** p<0.001. For mito-mKeima experiments, statistics were calculated by Two-way ANOVA with Tukey's multiple comparisons test. For western blots, TMRM and LC3 tandem reporter assay, statistics were calculated with one-way ANOVA with Tukey's multiple comparisons test.
as §1
FIG. 4. ULKTACs retain ULK1 agonist activity and subsequent induction of autophagy (A) Western blot of PANC-1 cells treated with ULKTACs±bafilomycin, probed for p-ULK1 (S317), ULK1, p62, b-Actin, LC31 and LC3II. Quantifications of (A) for the pULK1:ULK1 ratio (B) LC3I:LC3II ratio (C) and changes in p62 (D). (E) Representative images of PANC-1 cells stably expressing the mCherry-EGFP-LC3 tandem reporter treated with ULKTACs w/or w/o bafilomycin. Nuclei stained with Hoechst 33342, autophagosomes are shown in the EGFP channel and autolysosomes in the mCherry channel. Fold change in the number of autophagosome (F) and autolysosome (G) puncta. Data shown are mean±SEM, *p<0.05, ** p<0.01, *** p<0.001, one-way ANOVA, Dunnett's multiple comparisons test.
PANC-1 and A549 cells were separately seeded at a medium density in 24-well plates and infected overnight with 500 μL of filtered viral supernatant containing polybrene at a final concentration of 8 μg/mL. Cells were selected at 48 h post-transfection with 1 μg/mL puromycin and expanded into 10 cm tissue-culture treated dishes. Puromycin treatment was withheld once control cells had died. Experiments were performed without puromycin present using pooled populations of transduced cells. A549 and PANC-1 stably expressing mCherry-EGFP-LC3 tandem reporter cells were imaged with the PerkinElmer Opera Phenix or Opera Phenix Plus High Content Imaging Systems and analysed using Columbus software (v2.9.1). […]

Row | fold increase in number of mCherry puncta [3] [fold] | fold increase in number of EGFP puncta [3] [fold] | SMILES | LC31: LC3II ratio [1] | p62/SQSTM1 levels [2] | autophagic flux [3] | enhanced number of mCherry puncta [3] | green fluorescent puncta / number of autophagosomes [3]
1 | 1.3 | 1.5 | O=C(Nc1cc(C(F)(F)F)cc(C(F)(F)F)c1)N[C@@H](C(=O)Nc1ccc(F)cc1F)c1ccc(OCc2cn(CCCCCCNC(=O)C(=O)c3c(-c4ccccc4)[nH]c4ccccc34)nn2)cc1 [NZ-66, (R)-2-(3-(3,5-bis(trifluoromethyl)phenyl)ureido)-N-(2,4-difluorophenyl)-2-(4-((1-(6-(2-oxo-2-(2-phenyl-1H-indol-3-yl)acetamido)hexyl)-1H-1,2,3-triazol-4-yl)methoxy)phenyl) acetamide] | increases in the LC31: LC3II ratio | mild reductions in p62/SQSTM1 | did not block autophagic flux | reversed | 
2 |  |  | O=C(Nc1ccc(F)cc1F)[C@H](NC(=S)Nc1cc(C(F)(F)F)cc(C(F)(F)F)c1)c1ccccc1 [BL-918, reference compound] | increases in the LC31: LC3II ratio | reduction in p62/SQSTM1 levels |  |  | mild increase in autophagosome number
3 | 1.3 | 1.5 | O=C(Nc1cc(C(F)(F)F)cc(C(F)(F)F)c1)N[C@@H](C(=O)Nc1ccc(F)cc1F)c1ccc(OCc2cn(CCOCCOCCNC(=O)C(=O)c3c(-c4ccccc4)[nH]c4ccccc34)nn2)cc1 [NZ-65, (R)-2-(3-(3,5-bis(trifluoromethyl)phenyl)ureido)-N-(2,4-difluorophenyl)-2-(4-((1-(2-(2-(2-(2-oxo-2-(2-phenyl-1H-indol-3-yl)acetamido)ethoxy)ethoxy)ethyl)-1H-1,2,3-triazol-4-yl)methoxy)phenyl) acetamide] | increases in the LC31: LC3II ratio | mild reductions in p62/SQSTM1 | did not block autophagic flux | reversed | 
